Experimental data from patent publication US7470684B2, “Spiropiperidine derivatives as NK3 antagonists” (Hoffmann-La Roche Inc., priority 2007, dated 2008).
pKi: −log10 of the molar value. Where a name gives a salt, the structure may show the parent alone. Read-outs that look alike come from different tables or passages of the source.

Biological target: T1, human NK3 receptor (Homo sapiens, UniProt P29371)
T1 construct: expressed in transfected cells; host or cells: HEK293 cells, transiently transfected; membranes
T1 sequence (P29371 1-465): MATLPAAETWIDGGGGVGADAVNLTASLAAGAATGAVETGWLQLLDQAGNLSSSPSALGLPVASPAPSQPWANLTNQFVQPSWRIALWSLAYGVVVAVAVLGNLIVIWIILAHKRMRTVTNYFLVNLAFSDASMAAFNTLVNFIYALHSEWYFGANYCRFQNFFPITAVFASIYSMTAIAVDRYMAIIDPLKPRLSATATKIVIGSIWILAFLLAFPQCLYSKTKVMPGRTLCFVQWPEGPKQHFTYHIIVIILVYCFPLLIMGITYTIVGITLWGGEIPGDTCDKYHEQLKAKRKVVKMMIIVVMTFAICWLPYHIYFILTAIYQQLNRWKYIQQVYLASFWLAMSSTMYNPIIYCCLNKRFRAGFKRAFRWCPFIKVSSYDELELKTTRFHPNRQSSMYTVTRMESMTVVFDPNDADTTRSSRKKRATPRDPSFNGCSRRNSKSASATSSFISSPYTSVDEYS
Assay: [3H]SR142801 competition binding assay
Method in brief: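 Membranes from HEK293 cells transiently expressing human NK3 receptor incubated 75 min at RT with [3H]SR142801 at its KD and compound (0.0003-10 μM) in pH 7.4 Tris/MnCl2 buffer. Filtration and scintillation counting, nonspecific binding with 10 μM SB222200. IC50 from Hill fit, Ki by Cheng-Prusoff, duplicates.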

[1] = [3H]SR142801 displacement, membranes of HEK293 cells transiently expressing recombinant human NK3 receptor, read-out: hNK3 Ki
[2] = hNK3 Ki, [3H]SR142801 displacement, membranes of HEK293 cells transiently expressing recombinant human NK3 receptor

SMILES: Cc1ccsc1CNC(=O)C(CCCN1CCC2(CC1)OC(=O)Nc1ccc(F)cc12)c1ccc(Cl)c(Cl)c1 (stereo not shown) [Example 116, 2-(3,4-dichlorophenyl)-5-(6-fluoro-2-oxo-1,2-dihydro-1′H-spiro[3,1-benzoxazine-4,4′-piperidin]-1′-yl)-N-[(3-methyl-2-thienyl)methyl]pentanamide]
- pKi [1]: 7.18

SMILES: O=C1Nc2ccc(F)cc2C2(CCN(CCCC(C(=O)NCc3ccccc3OC(F)(F)F)c3ccc(Cl)c(Cl)c3)CC2)O1 (stereo not shown) [Example 118, 2-(3,4-dichlorophenyl)-5-(6-fluoro-2-oxo-1,2-dihydro-1′H-spiro[3,1-benzoxazine-4,4′-piperidin]-1′-yl)-N-[2-(trifluoromethoxy)benzyl]pentanamide]
- pKi [2]: 7.19

SMILES: CN(Cc1ccc(Cl)cc1)C(=O)C(CCCN1CCC2(CC1)OC(=O)Nc1ccc(F)cc12)c1ccc(Cl)c(Cl)c1 (stereo not shown) [Example 120, N-(4-chlorobenzyl)-2-(3,4-dichlorophenyl)-5-(6-fluoro-2-oxo-1,2-dihydro-1′H-spiro[3,1-benzoxazine-4,4′-piperidin]-1′-yl)-N-methylpentanamide]
- pKi [2]: 7.33

SMILES: CN(Cc1ccc(C(F)(F)F)cc1)C(=O)C(CCCN1CCC2(CC1)OC(=O)Nc1ccc(F)cc12)c1ccc(Cl)c(Cl)c1 (stereo not shown) [Example 121, 2-(3,4-dichlorophenyl)-5-(6-fluoro-2-oxo-1,2-dihydro-1′H-spiro[3,1-benzoxazine-4,4′-piperidin]-1′-yl)-N-methyl-N-[4-(trifluoromethyl)benzyl]pentanamide]
- pKi [2]: 7.19

SMILES: O=C1Nc2ccc(F)cc2C2(CCN(CCCC(C(=O)NCc3ccc(Cl)cc3)c3ccc(Cl)c(Cl)c3)CC2)O1 (stereo not shown) [Example 125, N-(4-chlorobenzyl)-2-(3,4-dichlorophenyl)-5-(6-fluoro-2-oxo-1,2-dihydro-1′H-spiro[3,1-benzoxazine-4,4′-piperidin]-1′-yl)pentanamide]
- pKi [2]: 7.01

SMILES: CN(Cc1cccc(C(F)(F)F)c1)C(=O)C(CCCN1CCC2(CC1)OC(=O)Nc1ccc(F)cc12)c1ccc(Cl)c(Cl)c1 (stereo not shown) [Example 130, 2-(3,4-dichlorophenyl)-5-(6-fluoro-2-oxo-1,2-dihydro-1′H-spiro[3,1-benzoxazine-4,4′-piperidin]-1′-yl)-N-methyl-N-[3-(trifluoromethyl)benzyl]pentanamide]
- pKi [2]: 7.04

SMILES: CN(Cc1ccc(F)cc1)C(=O)C(CCCN1CCC2(CC1)OC(=O)Nc1ccc(F)cc12)c1ccc(Cl)c(Cl)c1 (stereo not shown) [Example 131, 2-(3,4-dichlorophenyl)-N-(4-fluorobenzyl)-5-(6-fluoro-2-oxo-1,2-dihydro-1′H-spiro[3,1-benzoxazine-4,4′-piperidin]-1′-yl)-N-methylpentanamide]
- pKi [2]: 7.16

SMILES: O=C1Nc2ccc(F)cc2C2(CCN(CCCC(C(=O)NCc3ccc(F)cc3)c3ccc(Cl)c(Cl)c3)CC2)O1 (stereo not shown) [Example 132, 2-(3,4-dichlorophenyl)-N-(4-fluorobenzyl)-5-(6-fluoro-2-oxo-1,2-dihydro-1′H-spiro[3,1-benzoxazine-4,4′-piperidin]-1′-yl)-pentanamide]
- pKi: 7.18

SMILES: O=C1Nc2ccc(F)cc2C2(CCN(CCCC(C(=O)NCc3ccc(C(F)(F)F)cc3)c3ccc(Cl)c(Cl)c3)CC2)O1 (stereo not shown) [Example 135, 2-(3,4-dichlorophenyl)-5-(6-fluoro-2-oxo-1,2-dihydro-1′H-spiro[3,1-benzoxazine-4,4′-piperidin]-1′-yl)-N-[4-(trifluoromethyl)benzyl]pentanamide]
- pKi [1]: 7.04

SMILES: Cc1ccc(CN(C)C(=O)C(CCCN2CCC3(CC2)OC(=O)Nc2ccc(F)cc23)c2ccc(Cl)c(Cl)c2)cc1 (stereo not shown) [Example 138, 2-(3,4-dichlorophenyl)-5-(6-fluoro-2-oxo-1,2-dihydro-1′H-spiro[3,1-benzoxazine-4,4′-piperidin]-1′-yl)-N-methyl-N-(4-methylbenzyl)pentanamide]
- pKi [2]: 7.02

SMILES: C[C@H](NC(=O)[C@H](CCN1CCC2(CC1)OC(=O)Nc1ccc(F)cc12)c1ccc(Cl)c(Cl)c1)c1ccccc1 [Example 146, (2R)-2-(3,4-dichlorophenyl)-4-(6-fluoro-2-oxo-1,2-dihydro-1′H-spiro[3,1-benzoxazine-4,4′-piperidin]-1′-yl)-N-[(1S)-1-phenylethyl]butanamidehydrochloride]
- pKi [2]: 8.24

SMILES: CN(Cc1ccc(Cl)cc1)C(=O)[C@H](CCN1CCC2(CC1)OC(=O)N(C)c1ccc(F)cc12)c1ccc(Cl)c(Cl)c1 [Example 147, (2R)-N-(4-chlorobenzyl)-2-(3,4-dichlorophenyl)-4-(6-fluoro-1-methyl-2-oxo-1,2-dihydro-1′H-spiro[3,1-benzoxazine-4,4′-piperidin]-1′-yl)-N-methylbutanamide]
- pKi: 8.74

SMILES: CN(Cc1ccc(Cl)cc1)C(=O)[C@@H](CCN1CCC2(CC1)OC(=O)N(C)c1ccc(F)cc12)c1ccc(Cl)c(Cl)c1 [Example 148, (2S)-N-(4-chlorobenzyl)-2-(3,4-dichlorophenyl)-4-(6-fluoro-1-methyl-2-oxo-1,2-dihydro-1′H-spiro[3,1-benzoxazine-4,4′-piperidin]-1′-yl)-N-methylbutanamide]
- pKi [1]: 9.40
